From ChEMBL document CHEMBL1136414, “Structure-activity relationship of linear peptide Bu-His-DPhe-Arg-Trp-Gly-NH(2) at the human melanocortin-1 and -4 receptors: histidine substitution” (Bioorg Med Chem Lett, 2003) come the findings set out here.

Each structure is given as a SMILES string. pEC50, pIC50: −log10 of the molar value.

The target of experiment [1] is T1, Melanocyte-stimulating hormone receptor (Homo sapiens, UniProt Q01726). As to the kind of experiment: (§1) Agonist activity against human melanocortin receptor hMC1R at 50% maximum cAMP accumulation. Format: functional. (Changes in cAMP serve as a functional read-out for many G protein-coupled receptors.)
Target sequence in this assay (Q01726 whole entry): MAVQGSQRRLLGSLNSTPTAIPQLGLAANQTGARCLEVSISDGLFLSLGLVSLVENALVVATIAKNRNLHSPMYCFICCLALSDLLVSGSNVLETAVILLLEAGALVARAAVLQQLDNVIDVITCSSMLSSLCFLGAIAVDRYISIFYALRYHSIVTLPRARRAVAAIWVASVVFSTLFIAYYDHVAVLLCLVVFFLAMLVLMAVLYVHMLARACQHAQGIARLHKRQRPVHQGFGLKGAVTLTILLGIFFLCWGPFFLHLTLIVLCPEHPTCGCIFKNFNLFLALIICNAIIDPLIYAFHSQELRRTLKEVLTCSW
Experiment [2] has as its target T2, Melanocortin receptor 3 (Homo sapiens, UniProt P41968). Nature of the experiment: Binding affinity towards human melanocortin receptor hMC3R by using radioligand NDP-MSH.
Experiment [3] addresses T3, Melanocortin receptor 4 (Homo sapiens, UniProt P32245). As to the kind of experiment: Agonist activity against human melanocortin receptor hMC4R. Format: functional.
Experiment [4] has as its target T1, Melanocyte-stimulating hormone receptor. As to the kind of experiment: Agonist activity against human melanocortin receptor hMC1R. In kind it is functional.
Target sequence in this assay (Q01726 whole entry): as above
The target of experiment [5] is T4, Melanocortin receptor 5 (Homo sapiens, UniProt P33032). Nature of the experiment: Binding affinity towards human melanocortin receptor hMC5R by using radioligand NDP-MSH.
T4 sequence (P33032 whole entry): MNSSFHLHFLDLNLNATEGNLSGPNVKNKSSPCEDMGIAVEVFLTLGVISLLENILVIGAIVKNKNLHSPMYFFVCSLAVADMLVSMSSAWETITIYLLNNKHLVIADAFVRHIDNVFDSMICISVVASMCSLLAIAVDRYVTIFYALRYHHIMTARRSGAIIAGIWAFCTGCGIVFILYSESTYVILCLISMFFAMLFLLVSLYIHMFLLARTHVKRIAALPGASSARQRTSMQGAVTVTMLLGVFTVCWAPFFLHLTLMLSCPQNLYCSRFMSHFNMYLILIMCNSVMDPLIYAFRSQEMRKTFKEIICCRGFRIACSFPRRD
Experiment [6] addresses T1, Melanocyte-stimulating hormone receptor. Nature of the experiment: Binding affinity towards human melanocortin receptor hMC1R by using radioligand NDP-MSH.
Target sequence in this assay (Q01726 whole entry): as the sequence (Q01726 whole entry) above
Experiment [7] concerns the target T3, Melanocortin receptor 4. Nature of the experiment: Binding affinity towards human melanocortin receptor hMC4R by using radioligand NDP-MSH.
In experiment [8] the target is T4, Melanocortin receptor 5. Nature of the experiment: Agonist activity against human melanocortin receptor hMC5R measured as percent cAMP accumulation at the concentration of 50 uM. Format: functional.
In experiment [9] the target is T2, Melanocortin receptor 3. As to the kind of experiment: Agonist activity against human melanocortin receptor hMC3R measured as percent cAMP accumulation at the concentration of 50 uM. In kind it is functional.
The target in experiment [10] is T1, Melanocyte-stimulating hormone receptor. As to the kind of experiment: Percent inhibition of human melanocortin receptor hMC1R at the concentration of 50 uM.
Target sequence in this assay (Q01726 whole entry, looked up): as the sequence (Q01726 whole entry) above
For experiment [11] the target is unchanged. The description is as §1. In kind it is functional. This is another data set of the same source.
Target sequence in this assay (Q01726 whole entry, looked up): as the sequence (Q01726 whole entry) above
Experiment [12] concerns the target T3, Melanocortin receptor 4. As to the kind of experiment: Percent inhibition of human melanocortin receptor hMC4R at the concentration of 50 uM.
The target of experiment [13] is T3, Melanocortin receptor 4. Nature of the experiment: Binding affinity towards human melanocortin receptor hMC4R by using radioligand NDP-MSH; not determined.

The term pEC50 denotes the EC50 on a negative log10 scale, so that one unit is a factor of ten. One may read the pIC50 as the IC50 on a negative log10 scale, so that one unit is a factor of ten. A high value points to a low IC50. What is called inhibition is the change of the read-out against control, counted positive when it falls. A lower inhibition goes with a response near the control.

T3 sequence (P32245 whole entry): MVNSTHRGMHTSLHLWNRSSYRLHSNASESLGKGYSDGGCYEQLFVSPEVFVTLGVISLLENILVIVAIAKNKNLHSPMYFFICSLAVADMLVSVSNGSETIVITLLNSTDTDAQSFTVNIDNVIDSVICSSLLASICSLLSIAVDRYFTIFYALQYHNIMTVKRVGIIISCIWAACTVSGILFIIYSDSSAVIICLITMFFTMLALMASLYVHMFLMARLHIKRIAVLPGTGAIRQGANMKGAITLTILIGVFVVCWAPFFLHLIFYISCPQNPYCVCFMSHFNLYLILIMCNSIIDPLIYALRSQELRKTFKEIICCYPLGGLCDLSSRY
T2 sequence (P41968 whole entry): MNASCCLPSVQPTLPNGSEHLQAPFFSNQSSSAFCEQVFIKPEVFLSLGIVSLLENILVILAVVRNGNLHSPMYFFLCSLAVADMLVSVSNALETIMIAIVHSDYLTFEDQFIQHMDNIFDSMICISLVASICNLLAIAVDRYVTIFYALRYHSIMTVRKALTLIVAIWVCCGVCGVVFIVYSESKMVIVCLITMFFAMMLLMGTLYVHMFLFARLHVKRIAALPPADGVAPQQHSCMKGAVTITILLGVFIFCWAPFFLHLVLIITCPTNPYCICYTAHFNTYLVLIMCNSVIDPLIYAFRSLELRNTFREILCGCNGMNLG

Regarding `CCCC(=O)N[C@@H](Cc1cnc[nH]1)C(=O)N[C@H](Cc1ccccc1)C(=O)N[C@@H](CCCNC(=N)N)C(=O)N[C@@H](Cc1c[nH]c2ccccc12)C(=O)NCC(N)=O`, the values for the negative-log EC50 (pEC50) in [1], in [3] and in [4] were 8.00, 7.70 and 8.00, respectively. Further, the pIC50 in [2] is 5.40; in experiment [5] it was 4.88; in experiment [6], 6.24; in [7] it was 6.82.

In the case of `CCCC(=O)N[C@@H](Cc1c[nH]cn1)C(=O)N[C@H](Cc1ccccc1)C(=O)N[C@@H](CCCN=C(N)N)C(=O)N[C@@H](Cc1c[nH]c2ccccc12)C(=O)NCC(N)=O`, the Accumulation in experiment [8] and in [9] was 0% in each case.

Consider `CCCCC(=O)NC1(C(=O)NC(Cc2ccccc2)C(=O)N[C@@H](CCCNC(=N)N)C(=O)N[C@@H](Cc2c[nH]c3ccccc23)C(=O)NCC(N)=O)CCc2c(C)cccc2C1` (single isomer, unassigned), for which the negative logarithm of the EC50 (pEC50) was 7.46 in [3] and 5.91 in experiment [4].

As for `CCCCC(=O)NC1(C(=O)NC(Cc2ccccc2)C(=O)N[C@@H](CCCNC(=N)N)C(=O)N[C@@H](Cc2c[nH]c3ccccc23)C(=O)NCC(N)=O)CCc2c(cccc2OC(C)C)C1` (single isomer, unassigned), the pEC50 was 6.89 in experiment [3] and 6.17 in experiment [4].

On to `CCCCC(=O)NC1(C(=O)NC(Cc2ccccc2)C(=O)N[C@@H](CCCNC(=N)N)C(=O)N[C@@H](Cc2c[nH]c3ccccc23)C(=O)NCC(N)=O)CCc2c(CC)cccc2C1` (single isomer, unassigned), for which the values for the pEC50 in [3] and in experiment [4] were 7.62 and 6.71, respectively.

With `CCCCC(=O)NC1(C(=O)NC(Cc2ccccc2)C(=O)N[C@@H](CCCN=C(N)N)C(=O)N[C@@H](Cc2c[nH]c3ccccc23)C(=O)NCC(N)=O)CCc2c(Br)cccc2C1` (single isomer, unassigned), the inhibition in [10] came out at 75%. Further, the Accumulation in experiment [8] came out at 0%; in experiment [9] it was 0%; in experiment [11], 75%. Also, the pEC50 in experiment [3] was 7.48. Moreover, the figures for the pIC50 in experiment [6] and in experiment [7] were 5.31 and 6.70, respectively.

`CCCC(=O)N[C@@H](C)C(=O)NC(Cc1ccccc1)C(=O)N[C@@H](CCCN=C(N)N)C(=O)N[C@@H](Cc1c[nH]c2ccccc12)C(=O)NCC(N)=O` (single isomer, unassigned): the pEC50 in experiment [3] was 6.74; in experiment [4] it was 6.64.

For `CCCCC(=O)NC1(C(=O)NC(Cc2ccccc2)C(=O)N[C@@H](CCCNC(=N)N)C(=O)N[C@@H](Cc2c[nH]c3ccccc23)C(=O)NCC(N)=O)CCc2c(Cl)cccc2C1` (single isomer, unassigned), the pEC50 in [3] was 6.22; in [4], 5.85.

Take `CCCCC(=O)NC1(C(=O)NC(Cc2ccccc2)C(=O)N[C@@H](CCCNC(=N)N)C(=O)N[C@@H](Cc2c[nH]c3ccccc23)C(=O)NCC(N)=O)CCc2c(cccc2OC)C1` (single isomer, unassigned): the pEC50 in [3] is 7.05; in [4] it was 5.83.

As for `CCCCC(=O)NC1(C(=O)NC(Cc2ccccc2)C(=O)N[C@@H](CCCNC(=N)N)C(=O)N[C@@H](Cc2c[nH]c3ccccc23)C(=O)NCC(N)=O)CCc2c(cccc2C(C)C)C1` (single isomer, unassigned), the pEC50 in [3] was 7.89; in [4], 6.53.

In experiment [12], `CCCCC(=O)NC1(C(=O)NC(Cc2ccccc2)C(=O)N[C@@H](CCCN=C(N)N)C(=O)N[C@@H](Cc2c[nH]c3ccccc23)C(=O)NCC(N)=O)CCc2cccc(Br)c2C1` (single isomer, unassigned) showed an inhibition of 0%. This molecule gave a pEC50 in [4] of 5.77.

With `CCCCC(=O)NC1(C(=O)NC(Cc2ccccc2)C(=O)N[C@@H](CCCNC(=N)N)C(=O)N[C@@H](Cc2c[nH]c3ccccc23)C(=O)NCC(N)=O)CCc2c(cccc2OCC)C1` (single isomer, unassigned), the pEC50 was 6.92 in experiment [3] and 6.00 in experiment [4].

For the molecule `CCCCC(=O)NC1(C(=O)NC(Cc2ccccc2)C(=O)N[C@@H](CCCN=C(N)N)C(=O)N[C@@H](Cc2c[nH]c3ccccc23)C(=O)NCC(N)=O)CCc2ccc(Br)cc2C1` (single isomer, unassigned), the inhibition amounted to 0% in experiment [10] and 40% in experiment [12].

`CCCCC(=O)NC1(C(=O)NC(Cc2ccccc2)C(=O)N[C@@H](CCCN=C(N)N)C(=O)N[C@@H](Cc2c[nH]c3ccccc23)C(=O)NCC(N)=O)CCc2cc(Br)ccc2C1` (single isomer, unassigned; form 1) [listing 1 of 2 here]: in experiment [4], the negative-log EC50 (pEC50) was 5.47.

`CCCCC(=O)NC1(C(=O)NC(Cc2ccccc2)C(=O)N[C@@H](CCCN=C(N)N)C(=O)N[C@@H](Cc2c[nH]c3ccccc23)C(=O)NCC(N)=O)CCc2cc(Br)ccc2C1` (single isomer, unassigned; form 1) [listing 2 of 2 here] registered an inhibition in experiment [12] of 60%.

`CCCCC(=O)NC1(C(=O)NC(Cc2ccccc2)C(=O)N[C@@H](CCCN=C(N)N)C(=O)N[C@@H](Cc2c[nH]c3ccccc23)C(=O)NCC(N)=O)CCc2cc(Br)ccc2C1` (single isomer, unassigned; form 2) [listing 1 of 2 here] had a pEC50 in [4] of 5.33.

`CCCCC(=O)NC1(C(=O)NC(Cc2ccccc2)C(=O)N[C@@H](CCCN=C(N)N)C(=O)N[C@@H](Cc2c[nH]c3ccccc23)C(=O)NCC(N)=O)CCc2cc(Br)ccc2C1` (single isomer, unassigned; form 2) [listing 2 of 2 here] showed an inhibition in experiment [12] of 50%.

Turning to `CCCCC(=O)NC1(C(=O)N[C@H](Cc2ccccc2)C(=O)N[C@@H](CCCNC(=N)N)C(=O)N[C@@H](Cc2c[nH]c3ccccc23)C(=O)NCC(N)=O)CCc2c(cccc2N(C)C)C1` (single isomer, unassigned; isomer 1), the pEC50 in experiment [1] was 6.03; in experiment [3], 8.70; in experiment [4], 6.03. The pIC50 was 4.59 in experiment [6] and 7.60 in experiment [7].

Turning to `CCCCC(=O)NC1(C(=O)N[C@H](Cc2ccccc2)C(=O)N[C@@H](CCCN=C(N)N)C(=O)N[C@@H](Cc2c[nH]c3ccccc23)C(=O)NCC(N)=O)CCc2c(cccc2N(C)C)C1` (single isomer, unassigned; isomer 1), the Accumulation in experiment [8] and in experiment [9] was 0% in each case.

In experiment [3], `CCCCC(=O)NC1(C(=O)N[C@H](Cc2ccccc2)C(=O)N[C@@H](CCCNC(=N)N)C(=O)N[C@@H](Cc2c[nH]c3ccccc23)C(=O)NCC(N)=O)CCc2c(Br)cccc2C1` (single isomer, unassigned; isomer 2) gave a negative-log EC50 (pEC50) of 7.46. In addition, the pIC50 was 5.29 in experiment [6] and 6.98 in experiment [13].

Consider `CCCCC(=O)NC1(C(=O)N[C@H](Cc2ccccc2)C(=O)N[C@@H](CCCNC(=N)N)C(=O)N[C@@H](Cc2c[nH]c3ccccc23)C(=O)NCC(N)=O)CCc2c(cccc2N(C)C)C1` (single isomer, unassigned; isomer 2), for which the pEC50 in experiment [1] is 5.73; in experiment [3] it was 7.80; in experiment [4], 5.73. Moreover, the values for the pIC50 in experiment [6] and in experiment [7] were 4.66 and 6.82, respectively.

Regarding `CCCCC(=O)NC1(C(=O)N[C@H](Cc2ccccc2)C(=O)N[C@@H](CCCNC(=N)N)C(=O)N[C@@H](Cc2c[nH]c3ccccc23)C(=O)NCC(N)=O)CCc2c(Cl)cccc2C1` (single isomer, unassigned; isomer 2), the results for the pEC50 in experiment [3] and in experiment [4] were 6.89 and 6.05, respectively.

In [12], `CCCCC(=O)NC1(C(=O)N[C@H](Cc2ccccc2)C(=O)N[C@@H](CCCN=C(N)N)C(=O)N[C@@H](Cc2c[nH]c3ccccc23)C(=O)NCC(N)=O)CCc2cccc(Br)c2C1` (single isomer, unassigned; isomer 2) showed an inhibition of 0%. The same molecule showed a pEC50 in experiment [4] of 5.54.

In turn, `CCCCC(=O)NC1(C(=O)N[C@H](Cc2ccccc2)C(=O)N[C@@H](CCCN=C(N)N)C(=O)N[C@@H](Cc2c[nH]c3ccccc23)C(=O)NCC(N)=O)CCc2c(Br)cccc2C1` (single isomer, unassigned; isomer 2) gave an inhibition in experiment [10] of 50%. Moreover, the values for the Accumulation in experiment [8] and in [9] were 32% and 0%, respectively.

On to `CCCCC(=O)NC1(C(=O)N[C@H](Cc2ccccc2)C(=O)N[C@@H](CCCN=C(N)N)C(=O)N[C@@H](Cc2c[nH]c3ccccc23)C(=O)NCC(N)=O)CCc2c(cccc2N(C)C)C1` (single isomer, unassigned; isomer 2), for which the Accumulation is 24% in [8] and 0% in experiment [9].

As to `CCCCC(=O)N[C@]1(C(=O)N[C@H](Cc2ccccc2)C(=O)N[C@@H](CCCN=C(N)N)C(=O)N[C@@H](Cc2c[nH]c3ccccc23)C(=O)NCC(N)=O)CCc2ccccc2C1` (stereo in doubt; form 1), the pEC50 is 7.35 in experiment [3] and 6.08 in experiment [4].

As for `CCCC(=O)N[C@@]1(C(=O)N[C@H](Cc2ccccc2)C(=O)N[C@@H](CCCN=C(N)N)C(=O)N[C@@H](Cc2c[nH]c3ccccc23)C(=O)NCC(N)=O)CCc2ccccc2C1` (stereo in doubt; form 1), the pEC50 is 6.54 in experiment [3] and 5.36 in experiment [4].

As to `CCCCC(=O)N[C@]1(C(=O)N[C@H](Cc2ccccc2)C(=O)N[C@@H](CCCN=C(N)N)C(=O)N[C@@H](Cc2c[nH]c3ccccc23)C(=O)NCC(N)=O)CCc2ccccc2C1` (stereo in doubt; form 2), the pEC50 in experiment [3] was 6.00; in experiment [4] it was 5.71.

Consider `CCCC(=O)N[C@@]1(C(=O)N[C@H](Cc2ccccc2)C(=O)N[C@@H](CCCN=C(N)N)C(=O)N[C@@H](Cc2c[nH]c3ccccc23)C(=O)NCC(N)=O)CCc2ccccc2C1` (stereo in doubt; form 2), for which the pEC50 is 5.53 in experiment [3] and 5.25 in experiment [4].
